From the CheMixHub ionic liquid set
Several values for one entry are separate records, joined by “and”; a condition that tells them apart may be missing. Identical values can stand only once.

Assay: xn = mol fraction of the nth substance listed

CC(=O)[O-].CC[n+]1ccn(C)c1 + O
Details	electrical conductivity [S/m]	viscosity [mPa·s]
293.1 K, 101 kPa, x2 = 0.517	–	59.4
293.1 K, 101 kPa, x2 = 0.578	–	51.1
293.1 K, 101 kPa, x2 = 0.705	–	32.7
293.15 K, 100 kPa, x1 = 0.7987	0.314	–
293.15 K, 100 kPa, x1 = 1	0.223	–
293.15 K, 100 kPa, x2 = 0.2088	–	138.9
293.15 K, 101.3 kPa, x2 = 0	0.243	–
293.15 K, 101.3 kPa, x2 = 0.0774	0.327	–
293.15 K, 101.3 kPa, x2 = 0.1429	0.562	–
293.15 K, 101.3 kPa, x2 = 0.3065	1.016	–
293.15 K, 101.3 kPa, x2 = 0.4381	1.537	–
293.15 K, 101.3 kPa, x2 = 0.5278	2.03	–
293.15 K, 101.3 kPa, x2 = 0.7257	4.136	–
293.15 K, 101.3 kPa, x2 = 0.8083	5.417	–
293.15 K, 101.3 kPa, x2 = 0.8554	6.014	–
293.15 K, 101.3 kPa, x2 = 0.8891	5.902	–
293.15 K, 101.3 kPa, x2 = 0.9279	2.979	–
293.15 K, 101.3 kPa, x2 = 0.9308	2.707	–
293.15 K, 101.3 kPa, x2 = 0.9425	1.866	–
293.15 K, 101.3 kPa, x2 = 0.9559	1.121	–
293.15 K, 101.3 kPa, x2 = 0.9625	0.8	–
298.15 K, 101 kPa, x2 = 0	–	132.9
298.15 K, 101 kPa, x2 = 0.0992	–	109.7
298.15 K, 101 kPa, x2 = 0.266	–	85
298.15 K, 101 kPa, x2 = 0.4207	–	59.5
298.15 K, 101 kPa, x2 = 0.5408	–	44.4
298.15 K, 101 kPa, x2 = 0.6135	–	35.9
303.15 K, 100 kPa, x1 = 0.2003	2.37	–
303.15 K, 100 kPa, x1 = 0.7987	0.527	–
303.15 K, 100 kPa, x2 = 0.4	–	52.7
303.15 K, 101 kPa, x2 = 0.132	–	84
313.15 K, 100 kPa, x2 = 0.2088	–	47.2
313.15 K, 100 kPa, x2 = 0.4	–	33.9
313.15 K, 101 kPa, x2 = 0.188	–	46.7
313.15 K, 101 kPa, x2 = 0.5408	–	23.49
323.15 K, 100 kPa, x1 = 0.5984	1.63	–
323.15 K, 100 kPa, x2 = 0.2088	–	30.12
323.15 K, 101 kPa, x2 = 0.132	–	33.1
328.15 K, 101 kPa, x2 = 0.0992	–	27
328.15 K, 101 kPa, x2 = 0.4207	–	17.5
328.15 K, 101 kPa, x2 = 0.6805	–	9.43
328.15 K, 101 kPa, x2 = 0.8134	–	5.3
333.1 K, 101 kPa, x2 = 0.517	–	12.27
333.1 K, 101 kPa, x2 = 0.578	–	11
333.15 K, 100 kPa, x1 = 0.9481	1.31	–
333.15 K, 100 kPa, x1 = 1	1.31	–
333.15 K, 101 kPa, x2 = 0.188	–	21.4
333.15 K, 101 kPa, x2 = 0.266	–	19.5
343.15 K, 100 kPa, x1 = 1	1.75	–
343.15 K, 100 kPa, x2 = 0.2088	–	15.07
343.15 K, 100 kPa, x2 = 0.4	–	12.24
343.15 K, 100 kPa, x2 = 0.8023	–	3.8
343.15 K, 101 kPa, x2 = 0.222	–	14.52
343.15 K, 101 kPa, x2 = 0.5408	–	8.98
343.15 K, 101 kPa, x2 = 0.6805	–	6.22
353.15 K, 101 kPa, x2 = 0.102	–	12.96
353.15 K, 101 kPa, x2 = 0.132	–	12.58
353.15 K, 101 kPa, x2 = 0.188	–	11.89
353.15 K, 101 kPa, x2 = 0.355	–	10.11
363.15 K, 101 kPa, x2 = 0.072	–	10.28
363.15 K, 101 kPa, x2 = 0.102	–	10.09
363.15 K, 101 kPa, x2 = 0.132	–	9.82
373.15 K, 101 kPa, x2 = 0.188	–	7.48

CCCC[n+]1ccn(C)c1.N#C[N-]C#N + O=S(=O)([O-])C(F)(F)F.[Li+]
101 kPa, x1 = 1
Details	electrical conductivity [S/m]
288.15 K	0.596
298.15 K	0.925
333.15 K	2.77

CC(=O)[O-].CC[n+]1ccn(C)c1 + N#C[S-].[Na+]
101 kPa, x2 = 0
Details	electrical conductivity [S/m]	viscosity [mPa·s]
303.15 K	0.374	93.6
313.15 K	0.587	55.5

CC[NH+](CC)CC.O=S(=O)([O-])O + CS(C)=O
101 kPa
Details	viscosity [mPa·s]
298.15 K, x1 = 0.011	3.84
298.15 K, x2 = 0.0244	228
298.15 K, x2 = 0.199	178
298.15 K, x2 = 0.9539	9.02
303.15 K, x1 = 0.011	3.01
303.15 K, x2 = 0.653	40.58
308.15 K, x2 = 0.2473	97.6
308.15 K, x2 = 0.4004	74.6

CCCCc1n(S(=O)(=O)O)cc[n+]1S(=O)(=O)O.O=C([O-])C(F)(F)F + CC#N
101 kPa
Details	electrical conductivity [S/m]
278.15 K, x1 = 0.02551	1.24
283.15 K, x1 = 0.02551	1.19
288.15 K, x1 = 0.02551	1.07
293.15 K, x1 = 0.02551	0.944
298.15 K, x1 = 0.0052	0.359
298.15 K, x1 = 0.0104	0.425
298.15 K, x1 = 0.0155	0.554
298.15 K, x1 = 0.0205	0.632
298.15 K, x1 = 0.0255	0.899
298.15 K, x1 = 0.02551	0.899
303.15 K, x1 = 0.02551	0.665
308.15 K, x1 = 0.02551	0.646
313.15 K, x1 = 0.02551	0.545
318.15 K, x1 = 0.02551	0.521
323.15 K, x1 = 0.02551	0.468
328.15 K, x1 = 0.02551	0.457
333.15 K, x1 = 0.02551	0.423

CC[N+](CC)(CC)CC.[Cl-] + Oc1ccccc1
viscosity [mPa·s], 101 kPa
Details	303.15 K	323.15 K
x1 = 0.2	34.1	14.34
x1 = 0.25	38.6	–

OCC(F)(F)F + CC[n+]1ccn(C)c1.N#C[N-]C#N
100 kPa, x2 = 0
Details	viscosity [mPa·s]
298.15 K	1.77
308.15 K	1.38

CCCC[N+](C)(CCCC)CCCC.[Cl-] + O
viscosity
Details	293.15 K	298.15 K	303.15 K	308.15 K	313.15 K
100 kPa, x1 = 0.0003603	1.01 mPa·s	0.904 mPa·s	0.809 mPa·s	0.726 mPa·s	0.661 mPa·s
100 kPa, x1 = 0.0007023	1.024 mPa·s	0.914 mPa·s	0.815 mPa·s	0.735 mPa·s	0.671 mPa·s
100 kPa, x1 = 0.001062	1.035 mPa·s	0.93 mPa·s	0.829 mPa·s	0.744 mPa·s	0.686 mPa·s
100 kPa, x1 = 0.001422	1.045 mPa·s	0.941 mPa·s	0.839 mPa·s	0.756 mPa·s	0.694 mPa·s
101.3 kPa, x1 = 0.0003423	1.011 mPa·s	0.904 mPa·s	0.806 mPa·s	0.729 mPa·s	0.662 mPa·s
101.3 kPa, x1 = 0.0007203	1.023 mPa·s and 0.98 mPa·s and 1.04 mPa·s	0.914 mPa·s and 0.88 mPa·s and 0.93 mPa·s	0.812 mPa·s and 0.74 mPa·s and 0.83 mPa·s	0.737 mPa·s and 0.65 mPa·s and 0.75 mPa·s	0.672 mPa·s and 0.67 mPa·s
101.3 kPa, x1 = 0.001062	1.036 mPa·s	0.931 mPa·s	0.826 mPa·s	0.747 mPa·s	0.686 mPa·s
101.3 kPa, x1 = 0.00144	1.044 mPa·s and 0.97 mPa·s and 1.08 mPa·s	0.942 mPa·s and 0.89 mPa·s and 0.96 mPa·s	0.84 mPa·s and 0.77 mPa·s and 0.86 mPa·s	0.759 mPa·s and 0.77 mPa·s	0.695 mPa·s and 0.7 mPa·s

CCCCC[n+]1ccccc1.N#C[N-]C#N + O
100 kPa
Details	electrical conductivity [S/m]	viscosity [mPa·s]
298.15 K, x1 = 0.9354	0.667	–
303.15 K, x1 = 0.9354	0.833	–
308.15 K, x1 = 0.9514	–	28.8
308.15 K, x1 = 0.9515	0.979	–
308.15 K, x1 = 0.968	–	29.6
313.15 K, x1 = 0.9196	–	22.92
313.15 K, x1 = 0.9198	1.23	–
318.15 K, x1 = 0.9681	1.27	–
318.15 K, x2 = 0.01457	1.23	–
323.15 K, x1 = 0.9196	–	15.16
323.15 K, x1 = 0.9198	1.67	–
323.15 K, x1 = 0.968	–	16.91
323.15 K, x1 = 0.9681	1.5	–
323.15 K, x2 = 0.01492	–	17.54
328.15 K, x1 = 0.9351	–	14.21
328.15 K, x1 = 0.9354	1.82	–
328.15 K, x2 = 0.01457	1.65	–
328.15 K, x2 = 0.01492	–	15.11
338.15 K, x1 = 0.9514	–	11.11
338.15 K, x1 = 0.9515	2.23	–
